Laboratory results: patent US20260001892A1, “COMPOUND FOR REGULATING AND CONTROLLING ACTIVITY OF 15-PGDH AND PREPARATION METHOD THEREFOR” (SCINNOHUB PHARMACEUTICAL CO., LTD., priority 2022, published 2026)

Biological target: 15-PGDH (Homo sapiens (Human), UniProt P15428)
Assay: Detection of activity of 15-PGDH enzyme
Assay type: biochemical
Settings: inhibitory activity against 15-PGDH enzyme; substrates β-NAD and PGF2α; fluorescence Ex/Em=340/450
Experimental: • a. A solution of pH 7.5 containing 50 mM Tris-HCl, 0.01% Tween 20 was prepared with ultrapure water as a reaction buffer; • b. A 10 mM mother liquor of the compound to be tested was prepared with DMSO, and then the reaction buffer was used to dilute the mother liquor of the compound to be tested to obtain solution 1 of the compound to be tested at a concentration of 40,000 nM, and then the solution 1 of the compound to be tested was serially diluted into solutions 2-9 (or 2-12) of the compound to be tested at 9 (or 11) concentrations with a gradient difference of three-fold. 5 μL of each concentration of solutions of the compound to be tested was respectively taken and added into a 384-well plate as test wells; • c. 5 μL of the reaction buffer was then added to the blank wells of the 384-well plate as positive control and blank control wells, respectively; • d. The reaction buffer was used to prepare a 15-PGDH protein solution at a concentration of 5 ng/μL, 5 μL of the 15-PGDH protein solution was taken and added to the test wells and positive control wells, and meanwhile 5 μL of the reaction buffer was added to the blank control wells, then the plate was centrifuged at 2000 rpm for 30 seconds; • e. The reaction buffer was used to prepare 5 mM $3-NAD and 2 mM PGF2α, respectively, which were mixed at 1:1 by volume to obtain a substrate mixture, 10 μL of the substrate mixture was taken and added to the test wells, positive control wells and blank control wells to start the reaction; • f. The fluorescence signal value (Ex/Em=340/450) of each well was detected continuously by using a multifunctional microplate reader.
• a) Continuous fluorescence signal values were analyzed by using the “kinetic calculations-slope calculation method” in the PHERAstar Data analysis software to obtain the slope of each test well; • b) The inhibition rate % was calculated by using the following formula: inhibition rate %=[1−(slope of test well-signal value of positive control well)/(signal value of blank control well-average signal value of positive control well)]×100%. • c) Calculation of IC50 and plotting of inhibition rate-dose curves: IC50 values were calculated by fitting compound concentrations and corresponding inhibition rates with a nonlinear regression (dose response-variable slope) via using GraphPad Prism 6.0. The formula was shown below:
Y=Bottom+(Top−Bottom)/(1+10^((Log IC50−X)*HillSlope)), wherein X is a log value of a concentration of the compound, and Y is inhibition rate %.

15-PGDH, sequence (P15428 whole entry): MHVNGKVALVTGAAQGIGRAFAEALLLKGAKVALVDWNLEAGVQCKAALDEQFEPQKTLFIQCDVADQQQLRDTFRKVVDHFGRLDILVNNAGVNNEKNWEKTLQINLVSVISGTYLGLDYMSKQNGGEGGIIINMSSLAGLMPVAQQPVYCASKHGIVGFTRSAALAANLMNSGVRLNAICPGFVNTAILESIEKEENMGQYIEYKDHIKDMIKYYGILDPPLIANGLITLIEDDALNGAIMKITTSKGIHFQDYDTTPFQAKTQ

IC50	Structure (SMILES)
0.01 to 0.02 µM	O=C(c1sc2nc(-c3ccc4ncsc4c3)cnc2c1C(F)(F)F)N1CCCCC1 [Example 78]
0.01 to 0.02 µM	COc1ncc(-c2cnc3c(C#N)c(C(=O)N4CCCCC4)sc3n2)cn1 [Example 34, 3-(2-methoxypyrimidin-5-yl)-6-(piperidine-1-carbonyl)thieno[2,3-b]pyrazine-7-carbonitrile]
0.01 to 0.02 µM	COc1ccc(-c2cnc3c(C4CC4)c(C(=O)N4CCCCC4)sc3n2)cn1 [Example 23]
0.01 to 0.02 µM	N#Cc1c(C(=O)N2CCCCC2)sc2nc(-c3ccccc3)cnc12 [Example 33, 3-phenyl-6-(piperidine-1-carbonyl)thieno[2,3-b]pyrazine-7-carbonitrile]
< 0.003 µM	COc1ncc(-c2cnc3c(C4CC4)c(C(=O)N4CCCCC4)sc3n2)cn1 [Example 5]
0.003 to 0.01 µM	O=C(c1sc2nc(-c3cncnc3)cnc2c1C(F)(F)F)N1CCCCC1 [Example 91]
